pIC50: −log10 of the molar value.
How the values were obtained:
K562 = experiment: Cytotoxicity against human K562 cells assessed as cell growth inhibition measured after 72 hrs by MTT assay; type: functional, cell-based; settings: K562, 72 h
HCT-116 = experiment: Cytotoxicity against human HCT-116 cells assessed as cell growth inhibition measured after 72 hrs by MTT assay; type: functional, cell-based; settings: HCT-116, 72 h
HepG2 = experiment: Cytotoxicity against human HepG2 cells assessed as cell growth inhibition measured after 72 hrs by MTT assay; type: functional, cell-based; settings: HepG2, 72 h
A549 = experiment: Cytotoxicity against human A549 cells assessed as cell growth inhibition measured after 72 hrs by MTT assay; type: functional, cell-based; settings: A549, 72 h
MDA-MB-231 = experiment: Cytotoxicity against human MDA-MB-231 cells assessed as cell growth inhibition measured after 72 hrs by MTT assay; type: functional, cell-based; settings: MDA-MB-231, 72 h
[1] = Cytotoxicity against human HMEC-1 cells assessed as cell growth inhibition measured after 72 hrs by MTT assay; type: toxicity, cell-based
[2] = biological target: T1, 5-hydroxytryptamine receptor 1A (Rattus norvegicus) (UniProt P19327); experiment: Agonist activity at Sprague-Dawley rat hippocampal membrane 5-HT1A receptor assessed as stimulation of [35S]GTPgammaS binding by measuring maximal efficacy measured after 90 mins by scintillation counter analysis relative to control; type: functional, cell membranes; settings: Hippocampus, filed as agonist
T1 sequence (whole entry): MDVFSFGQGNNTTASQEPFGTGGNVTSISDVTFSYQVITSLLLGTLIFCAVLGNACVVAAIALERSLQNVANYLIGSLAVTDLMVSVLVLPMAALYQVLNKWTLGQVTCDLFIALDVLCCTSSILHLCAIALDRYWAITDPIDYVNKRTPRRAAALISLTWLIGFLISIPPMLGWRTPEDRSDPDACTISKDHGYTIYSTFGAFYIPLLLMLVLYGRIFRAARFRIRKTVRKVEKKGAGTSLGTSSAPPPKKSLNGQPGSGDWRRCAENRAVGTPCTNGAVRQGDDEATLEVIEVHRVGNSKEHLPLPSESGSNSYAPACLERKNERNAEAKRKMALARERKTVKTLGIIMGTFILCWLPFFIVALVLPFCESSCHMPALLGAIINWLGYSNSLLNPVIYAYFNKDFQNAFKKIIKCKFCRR

SMILES | pIC50 (K562) | pIC50 (HCT-116) | pIC50 (HepG2) | pIC50 (A549) | pIC50 (MDA-MB-231) | IC50 at 72 h [1] | Emax [2]
COc1cccc2c1C(=O)c1c(O)c3c(c(O)c1C2=O)C[C@@](O)(C(=O)CO)C[C@@H]3O[C@H]1C[C@H](N)[C@H](O)[C@H](C)O1 [DOXORUBICIN] | 6.68 | 6.02 | 6.54 | 6.62 | 6.92 | 500 nM | 
CCCN(CCC)C1CCc2cccc(O)c2C1 (configuration not stated) |  |  |  |  |  |  | 148%

— ChEMBL document CHEMBL5329202, “New aryl-/heteroarylpiperazine derivatives of 1,7-dimethyl-8,9-diphenyl-4-azatricyclo[5.2.1.02,6]dec-8-ene-3,5,10-trione: Synthesis and preliminary studies of biological activities” (Bioorg Med Chem, 2023)
